Earlier results as cited in patent US20240398765A1, “TRANSDERMAL THERAPEUTIC SYSTEM FOR THE TRANSDERMAL ADMINISTRATION OF TIZANIDINE” (LTS LOHMANN THERAPIE-SYSTEME AG, priority 2021, published 2024).
Structures can show the parent of a compound that is named as a salt.

Conditions: background statement, no test described

Row | SMILES | permeation through the skin
1 | Clc1ccc2nsnc2c1NC1=NCCN1 [tizanidine in the form of its hydrochloride] | does not permeate through the skin
2 | Clc1ccc2nsnc2c1NC1=NCCN1 [tizanidine in the form of its free base, 5-chloro-4-(2-imidazolin-2-ylamino)-2,1,3-benzothiadiazole] | slightly permeates through the skin
